Data from patent US10414811B2, “Protease-resistant lipidated GLP-1 analogs” (MEDIMMUNE LIMITED, priority 2015, dated 2019).
Read-outs that look alike come from different tables or passages of the source.

Legend:
Type in all cases: cell-based
[1] = target: T1, human GLP-1 receptor (GLP-1R) (Homo sapiens, UniProt P43220); assay: cAMP assay, human GLP-1R cells
T1 construct: expressed in transfected cells
Method in brief: (§1)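 Peptide-stimulated cAMP measured by two-step HTRF after a 30 min room-temperature incubation with receptor-expressing cells (hGLP-1R, hGIPR at 1×10^5 cells/ml; hGCGR at 2×10^5 cells/ml). Duplicate dilutions; EC50 from 4-parameter logistic fit of % Delta F.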

[2] = target: T2, human glucose-dependent insulinotropic peptide receptor (GIPR) (Homo sapiens, UniProt P48546); assay: cAMP assay, human GIPR cells; details: cAMP assay
T2 construct: expressed in transfected cells
T2 sequence (P48546 22-466): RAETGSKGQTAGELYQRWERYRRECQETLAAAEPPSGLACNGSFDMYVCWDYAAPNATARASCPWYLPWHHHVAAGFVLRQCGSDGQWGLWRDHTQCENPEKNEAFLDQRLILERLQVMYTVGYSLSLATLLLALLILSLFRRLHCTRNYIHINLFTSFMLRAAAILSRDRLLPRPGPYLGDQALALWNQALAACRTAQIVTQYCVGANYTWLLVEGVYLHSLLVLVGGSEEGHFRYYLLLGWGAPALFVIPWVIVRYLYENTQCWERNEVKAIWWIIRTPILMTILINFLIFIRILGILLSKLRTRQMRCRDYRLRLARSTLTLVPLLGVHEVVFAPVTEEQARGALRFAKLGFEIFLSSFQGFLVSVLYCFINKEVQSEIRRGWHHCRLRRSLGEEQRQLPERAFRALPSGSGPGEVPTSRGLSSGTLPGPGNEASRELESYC
Method in brief: as §1

[3] = target: T3, human glucagon receptor (GCGR) (Homo sapiens, UniProt P47871); assay: cAMP assay, human GCGR cells; details: cAMP assay
T3 construct: expressed in transfected cells
T3 sequence (P47871 26-477): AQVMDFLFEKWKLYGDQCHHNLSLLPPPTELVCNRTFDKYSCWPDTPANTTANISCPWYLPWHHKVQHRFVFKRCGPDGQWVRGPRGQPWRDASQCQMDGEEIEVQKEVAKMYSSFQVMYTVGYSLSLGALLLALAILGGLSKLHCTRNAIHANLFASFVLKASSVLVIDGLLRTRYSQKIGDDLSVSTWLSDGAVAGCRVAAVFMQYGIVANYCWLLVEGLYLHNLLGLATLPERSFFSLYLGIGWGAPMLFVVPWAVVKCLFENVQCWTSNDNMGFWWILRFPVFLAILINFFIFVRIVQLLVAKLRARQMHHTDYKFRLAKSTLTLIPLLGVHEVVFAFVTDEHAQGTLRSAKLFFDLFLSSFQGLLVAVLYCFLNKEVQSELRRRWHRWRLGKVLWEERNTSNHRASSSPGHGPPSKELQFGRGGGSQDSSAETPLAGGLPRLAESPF
Method in brief: as §1

[4] = cAMP assay, first determination (n1), read-out: Primary assay EC50 GLP-1R n1
[5] = cAMP assay, second determination (n2), read-out: Primary assay EC50 GLP-1R n2
[6] = mean of n1 and n2, read-out: Mean pM GLP-1R
[7] = Primary assay EC50 GIP-R (n1), first determination (n1)
[8] = read-out: Primary assay EC50 GIP-R (n2), second determination (n2)
[9] = Primary assay EC50 Gluc-R (n1), first determination (n1)
[10] = read-out: Primary assay EC50 Gluc-R (n2), second determination (n2)

T1 sequence (P43220 24-463): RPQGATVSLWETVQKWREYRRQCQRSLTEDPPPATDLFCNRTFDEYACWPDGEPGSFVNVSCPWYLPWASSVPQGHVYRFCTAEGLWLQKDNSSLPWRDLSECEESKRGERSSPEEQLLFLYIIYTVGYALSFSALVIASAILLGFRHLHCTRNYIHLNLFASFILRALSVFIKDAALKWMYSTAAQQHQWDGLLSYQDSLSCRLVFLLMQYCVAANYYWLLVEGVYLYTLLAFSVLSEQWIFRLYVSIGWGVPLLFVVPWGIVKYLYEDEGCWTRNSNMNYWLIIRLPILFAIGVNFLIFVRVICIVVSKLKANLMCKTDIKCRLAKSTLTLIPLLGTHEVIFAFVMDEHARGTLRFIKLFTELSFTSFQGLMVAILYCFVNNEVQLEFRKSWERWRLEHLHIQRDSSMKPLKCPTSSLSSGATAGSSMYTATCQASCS

EC50 ([2]; first determination (n1), read-out: Primary assay EC50 GIP-R (n1)) [nM] | EC50 ([2]; second determination (n2), read-out: Primary assay EC50 GIP-R (n2)) [nM] | EC50 ([3]; first determination (n1), read-out: Primary assay EC50 Gluc-R (n1)) [nM] | EC50 ([3]; second determination (n2), read-out: Primary assay EC50 Gluc-R (n2)) [nM] | Structure (SMILES) | EC50 [1, 4] [pM] | EC50 [1, 5] [pM] | EC50 [1, 6] [pM] | EC50 [2, 7] [nM] | EC50 [2, 8] [nM] | EC50 [3, 9] [nM] | EC50 [3, 10] [nM]
≥ 27 | ≥ 27 | ≥ 27 | ≥ 27 | CCCCCCCCCCCC(=O)NCCCCCC(=O)NCCCCCC(=O)NCCCCCC(=O)NCCCC[C@H](NC(=O)[C@H](C)NC(=O)[C@H](C)NC(=O)[C@H](CCC(=O)O)NC(=O)CNC(=O)[C@H](CCC(=O)O)NC(=O)[C@H](CC(C)C)NC(=O)[C@](C)(Cc1ccccc1)NC(=O)[C@H](CO)NC(=O)[C@](C)(CO)NC(=O)[C@@H](NC(=O)[C@H](CC(=O)O)NC(=O)[C@H](CO)NC(=O)[C@@H](NC(=O)[C@](C)(Cc1ccccc1)NC(=O)[C@H](CO)NC(=O)CNC(=O)[C@H](CCC(=O)O)NC(=O)C(C)(C)NC(=O)[C@@H](N)Cc1c[nH]cn1)[C@@H](C)O)C(C)C)C(=O)N[C@@H](CCC(=O)O)C(=O)N[C@@](C)(Cc1ccccc1)C(=O)N[C@H](C(=O)N[C@@H](C)C(=O)N[C@@](C)(Cc1ccccc1)C(=O)N[C@H](C(=O)N[C@H](C(=O)N[C@@](C)(CCCCN)C(=O)NCC(=O)NCC(N)=O)C(C)C)C(C)C)[C@@H](C)CC [compound 133] | 34 | 25 | 29.4 |  |  |  | 
 |  |  |  | CC[C@H](C)[C@H](NC(=O)[C@](C)(Cc1ccccc1)NC(=O)[C@H](CCC(=O)O)NC(=O)[C@H](CCCCNC(=O)CC[C@H](NC(=O)CC[C@H](NC(=O)CCCCCCCCCCCOc1ccc(C(=O)O)cc1)C(=O)O)C(=O)O)NC(=O)[C@H](C)NC(=O)[C@H](C)NC(=O)[C@H](CCC(=O)O)NC(=O)CNC(=O)[C@H](CCC(=O)O)NC(=O)[C@H](CC(C)C)NC(=O)[C@](C)(Cc1ccccc1)NC(=O)[C@H](CO)NC(=O)[C@](C)(CO)NC(=O)[C@@H](NC(=O)[C@H](CC(=O)O)NC(=O)[C@H](CO)NC(=O)[C@@H](NC(=O)[C@](C)(Cc1ccccc1)NC(=O)[C@H](CO)NC(=O)CNC(=O)[C@H](CCC(=O)O)NC(=O)C(C)(C)NC(=O)[C@@H](N)Cc1c[nH]cn1)[C@@H](C)O)C(C)C)C(=O)N[C@@H](C)C(=O)N[C@@](C)(Cc1ccccc1)C(=O)N[C@H](C(=O)N[C@H](C(=O)N[C@@](C)(CCCCN)C(=O)NCC(=O)NCC(N)=O)C(C)C)C(C)C [compound 138] | 19 | 15 | 17.2 | ≥ 26 | ≥ 26 | ≥ 26 | ≥ 26
 |  |  |  | CC[C@H](C)[C@H](NC(=O)[C@](C)(Cc1ccccc1)NC(=O)[C@H](CCC(=O)O)NC(=O)[C@H](CCCCNC(=O)CC[C@H](NC(=O)CC[C@H](NC(=O)CC[C@H](NC(=O)CCCCCCCCCCCOc1ccc(C(=O)O)cc1)C(=O)O)C(=O)O)C(=O)O)NC(=O)[C@H](C)NC(=O)[C@H](C)NC(=O)[C@H](CCC(=O)O)NC(=O)CNC(=O)[C@H](CCC(=O)O)NC(=O)[C@H](CC(C)C)NC(=O)[C@](C)(Cc1ccccc1)NC(=O)[C@H](CO)NC(=O)[C@](C)(CO)NC(=O)[C@@H](NC(=O)[C@H](CC(=O)O)NC(=O)[C@H](CO)NC(=O)[C@@H](NC(=O)[C@](C)(Cc1ccccc1)NC(=O)[C@H](CO)NC(=O)CNC(=O)[C@H](CCC(=O)O)NC(=O)C(C)(C)NC(=O)[C@@H](N)Cc1c[nH]cn1)[C@@H](C)O)C(C)C)C(=O)N[C@@H](C)C(=O)N[C@@](C)(Cc1ccccc1)C(=O)N[C@H](C(=O)N[C@H](C(=O)N[C@@](C)(CCCCN)C(=O)NCC(=O)NCC(N)=O)C(C)C)C(C)C [compound 139] | 29 | 22 | 25.5 | ≥ 26 | ≥ 26 | ≥ 26 | ≥ 26
 |  |  |  | CC[C@H](C)[C@H](NC(=O)[C@](C)(Cc1ccccc1)NC(=O)[C@H](CCC(=O)O)NC(=O)[C@H](CCCCNC(=O)CCCCCNC(=O)CCCCCNC(=O)CCCCCNC(=O)CCCCCCCCCCCOc1ccc(C(=O)O)cc1)NC(=O)[C@H](C)NC(=O)[C@H](C)NC(=O)[C@H](CCC(=O)O)NC(=O)CNC(=O)[C@H](CCC(=O)O)NC(=O)[C@H](CC(C)C)NC(=O)[C@](C)(Cc1ccccc1)NC(=O)[C@H](CO)NC(=O)[C@](C)(CO)NC(=O)[C@@H](NC(=O)[C@H](CC(=O)O)NC(=O)[C@H](CO)NC(=O)[C@@H](NC(=O)[C@](C)(Cc1ccccc1)NC(=O)[C@H](CO)NC(=O)CNC(=O)[C@H](CCC(=O)O)NC(=O)C(C)(C)NC(=O)[C@@H](N)Cc1c[nH]cn1)[C@@H](C)O)C(C)C)C(=O)N[C@@H](C)C(=O)N[C@@](C)(Cc1ccccc1)C(=O)N[C@H](C(=O)N[C@H](C(=O)N[C@@](C)(CCCCN)C(=O)NCC(=O)NCC(N)=O)C(C)C)C(C)C [compound 142] | 12 | 7.9 | 10.1 | ≥ 26 | ≥ 26 | ≥ 26 | ≥ 26
 |  |  |  | CC[C@H](C)[C@H](NC(=O)[C@](C)(Cc1ccccc1)NC(=O)[C@H](CCC(=O)O)NC(=O)[C@H](CCCCNC(=O)COCCOCCNC(=O)COCCOCCNC(=O)CCCCCCCCCCCOc1ccc(C(=O)O)cc1)NC(=O)[C@H](C)NC(=O)[C@H](C)NC(=O)[C@H](CCC(=O)O)NC(=O)CNC(=O)[C@H](CCC(=O)O)NC(=O)[C@H](CC(C)C)NC(=O)[C@](C)(Cc1ccccc1)NC(=O)[C@H](CO)NC(=O)[C@](C)(CO)NC(=O)[C@@H](NC(=O)[C@H](CC(=O)O)NC(=O)[C@H](CO)NC(=O)[C@@H](NC(=O)[C@](C)(Cc1ccccc1)NC(=O)[C@H](CO)NC(=O)CNC(=O)[C@H](CCC(=O)O)NC(=O)C(C)(C)NC(=O)[C@@H](N)Cc1c[nH]cn1)[C@@H](C)O)C(C)C)C(=O)N[C@@H](C)C(=O)N[C@@](C)(Cc1ccccc1)C(=O)N[C@H](C(=O)N[C@H](C(=O)N[C@@](C)(CCCCN)C(=O)NCC(=O)NCC(N)=O)C(C)C)C(C)C [compound 144] | 16 | 9.6 | 12.6 | ≥ 26 | ≥ 26 | ≥ 26 | ≥ 26
 |  |  |  | CC[C@H](C)[C@H](NC(=O)[C@](C)(Cc1ccccc1)NC(=O)[C@H](CCC(=O)O)NC(=O)[C@H](CCCCNC(=O)COCCOCCNC(=O)COCCOCCNC(=O)COCCOCCNC(=O)CCCCCCCCCCCOc1ccc(C(=O)O)cc1)NC(=O)[C@H](C)NC(=O)[C@H](C)NC(=O)[C@H](CCC(=O)O)NC(=O)CNC(=O)[C@H](CCC(=O)O)NC(=O)[C@H](CC(C)C)NC(=O)[C@](C)(Cc1ccccc1)NC(=O)[C@H](CO)NC(=O)[C@](C)(CO)NC(=O)[C@@H](NC(=O)[C@H](CC(=O)O)NC(=O)[C@H](CO)NC(=O)[C@@H](NC(=O)[C@](C)(Cc1ccccc1)NC(=O)[C@H](CO)NC(=O)CNC(=O)[C@H](CCC(=O)O)NC(=O)C(C)(C)NC(=O)[C@@H](N)Cc1c[nH]cn1)[C@@H](C)O)C(C)C)C(=O)N[C@@H](C)C(=O)N[C@@](C)(Cc1ccccc1)C(=O)N[C@H](C(=O)N[C@H](C(=O)N[C@@](C)(CCCCN)C(=O)NCC(=O)NCC(N)=O)C(C)C)C(C)C [compound 145] | 27 | 15 | 21 | ≥ 25 | ≥ 25 | ≥ 25 | ≥ 25
